{"source": "patent US20240336896A1", "about": "“MODIFIED PRODUCER CELLS FOR EXTRACELLULAR VESICLE PRODUCTION” (LONZA SALES AG, priority 2021, published 2024)", "key": {"[1]": {"tested_on": "primary murine polymorphonuclear neutrophils, RAW264.7 monocytic cells, and 4T1 murine mammary cancer cells", "settings": "Baek et al., Endocrinology 2021; cited from earlier work"}, "HiBit reporter cell line [2]": {"tested_on": "HiBit reporter cell line", "settings": "for Day 4 VCD / Day 4 Viability: 4 day; for D6 VCD / Day 6 Viability: 6 day"}, "[3]": {"tested_on": "1919 HiBit reporter cell line", "test": "HiBit luciferase reporter assay of EV production, agent supplemented into media", "format": "cell-based"}, "HiBit reporter cell line [4]": {"tested_on": "HiBit reporter cell line", "test": "viability and viable cell density (VCD) of treated producer cells"}, "CHO-S cells": {"tested_on": "CHO-S cells", "test": "EV yield in total particles from CHO cells", "format": "cell-based, Chinese Hamster", "experimental": "Table 10 quantifies the results. A similar 5.6-fold increase relative to untreated controls was also observed in CHO-S cells six days after being treated with 6 nM simvastatin."}, "human adipose MSC cells": {"tested_on": "human adipose MSC cells", "test": "relative EV yield by AEX UHPLC peak areas of clarified conditioned media", "format": "cell-based", "settings": "6 nM simvastatin, 4 days, serum free media", "experimental": "When cultures reached approximately 50% confluence, the media was removed and replaced with the identical growth media (control) or the growth media supplemented with […] simvastatin (sim treated). The cultures were incubated for an additional 4 days at which point the conditioned media was collected and the cell debris removed by centrifugation. The clarified condition media was then analyzed by anion exchange (AEX) ultra high-performance liquid chromatography (UHPLC), and the relative amount of extracellular vesicles in each sample was estimated by comparing peak areas. Table 11 quantifies the results, showing a 2.6 fold increase in EV production by adipose MSC cells treated with 6 nM simvastatin."}, "[5]": {"tested_on": "HEK producer cell line producing Protein X EVs (PrX)", "test": "EV yield in total particles, PrX producer cells", "format": "cell-based", "experimental": "(§1) The cells lines were treated with simvastatin (5 nM and 10 nM) for 10 days prior to EV purification."}, "[6]": {"tested_on": "HEK producer cell line producing IL-12 EVs (exoIL-12)", "test": "EV yield in total particles, exoIL-12 producer cells", "format": "cell-based", "experimental": "as §1"}}, "note": "Read-outs that look alike come from different tables or passages of the source.", "data": [{"molecule": "C[C@@H](CO)CCC[C@@H](C)[C@H]1CC[C@H]2[C@@H]3CC=C4C[C@@H](O)CC[C@]4(C)[C@H]3CC[C@]12C", "note": "[27-hydroxycholesterol]", "values": [{"measurement": "exosome production", "setting": "[1]", "value": "increased exosome production"}]}, {"molecule": "CN(C)C(=O)N[C@H]1CC[C@H](CCN2CCN(c3cccc(Cl)c3Cl)CC2)CC1", "note": "[Cariprazine, cariprazine]", "values": [{"measurement": "Day 4 VCD", "setting": "HiBit reporter cell line [2]", "value": "5.14 e6/ml"}, {"measurement": "Day 4 VCD", "setting": "HiBit reporter cell line [2]; 5 μM", "value": "7.73 e6/ml"}, {"measurement": "Day 4 Viability", "setting": "HiBit reporter cell line [2]; 5 μM", "value": 95.6, "unit": "%"}, {"measurement": "Day 4 Viability", "setting": "HiBit reporter cell line [2]; 10 μM", "value": 89.7, "unit": "%"}, {"measurement": "D6 VCD", "setting": "HiBit reporter cell line [2]; 5 μM", "value": "11.97 e6/ml"}, {"measurement": "Day 6 Viability", "setting": "HiBit reporter cell line [2]; 5 μM", "value": 92.4, "unit": "%"}, {"measurement": "D6 VCD", "setting": "HiBit reporter cell line [2]; 10 μM", "value": "5.13 e6/ml"}, {"measurement": "Day 6 Viability", "setting": "HiBit reporter cell line [2]; 10 μM", "value": 81.0, "unit": "%"}, {"measurement": "Luciferase relative to control", "setting": "[3]; 2 μM cariprazine, Day 2", "value": 0.8}, {"measurement": "Luciferase relative to control", "setting": "[3]; 2 μM cariprazine, Day 3", "value": 1.8}, {"measurement": "Luciferase relative to control", "setting": "[3]; 5 μM cariprazine, Day 2", "value": 1}, {"measurement": "Luciferase relative to control", "setting": "[3]; 5 μM cariprazine, Day 3", "value": 2.6}, {"measurement": "Luciferase relative to control", "setting": "[3]; 10 μM cariprazine, Day 2", "value": 0.8}, {"measurement": "Luciferase relative to control", "setting": "[3]; 10 μM cariprazine, Day 3", "value": 2.4}]}, {"molecule": "Cc1nc[nH]c1CN1CCN(C(=O)N[C@@H](CC(C)C)C(=O)O)[C@@H](Cc2ccccc2)C1=O", "note": "[GGTI-2418]", "values": [{"measurement": "effect on exosome production (RLU)", "setting": "[3]; days 2, 4, 6, and 8", "value": "no effect"}, {"measurement": "effect on cell density (VCD)", "setting": "HiBit reporter cell line [4]; days 2, 4, 6, and 8", "value": "no effect"}]}, {"molecule": "CCC(C)(C)C(=O)O[C@H]1C[C@@H](C)C=C2C=C[C@H](C)[C@H](CC[C@@H]3C[C@@H](O)CC(=O)O3)[C@H]21", "note": "[Simvastatin, simvastatin]", "values": [{"measurement": "increase in EV yield relative to untreated controls", "setting": "CHO-S cells; CHO-S cells six days after being treated with 6 nM simvastatin", "value": 5.6, "unit": "fold"}, {"measurement": "Relationship to Control", "setting": "CHO-S cells; CHO-S, 10 nM simvastatin", "value": 5.6, "unit": "X"}, {"measurement": "Total Particles", "setting": "CHO-S cells; CHO-S, 10 nM simvastatin", "value": "2.22E+11"}, {"measurement": "FOLD INCREASE PER CELL EV PRODUCTION", "setting": "human adipose MSC cells", "value": 2.6, "unit": "X"}, {"measurement": "FOLD INCREASE PER CELL EV PRODUCTION", "setting": "human adipose MSC cells; listed as Sim", "value": 2.6, "unit": "X"}, {"measurement": "Luciferase relative to control", "setting": "[3]; 10 nM simvastatin, Day 2", "value": 2.3}, {"measurement": "Luciferase relative to control", "setting": "[3]; 10 nM simvastatin, Day 3", "value": 4.7}, {"measurement": "Luciferase relative to control", "setting": "[3]; 10 nM simvastatin, Day 6", "value": 9.6}, {"measurement": "Luciferase relative to control", "setting": "[3]; 50 nM simvastatin, Day 2", "value": 5.3}, {"measurement": "IC50", "setting": "[3]; simvastatin supplemented into the media, inhibited quantity not stated", "value": "10 to 20", "unit": "nM"}, {"measurement": "D6 VCD", "setting": "HiBit reporter cell line [4]; 2 nM simvastatin", "value": "17.00 e6/ml"}, {"measurement": "Day 4 VCD", "setting": "HiBit reporter cell line [4]; 2 nM simvastatin", "value": "10.41 e6/ml"}, {"measurement": "Day 4 Viability", "setting": "HiBit reporter cell line [4]; 2 nM simvastatin", "value": 94.9, "unit": "%"}, {"measurement": "Day 6 Viability", "setting": "HiBit reporter cell line [4]; 2 nM simvastatin", "value": 95.5, "unit": "%"}, {"measurement": "D6 VCD", "setting": "HiBit reporter cell line [4]; 5 nM simvastatin", "value": "15.5 e6/ml"}, {"measurement": "Day 4 VCD", "setting": "HiBit reporter cell line [4]; 5 nM simvastatin", "value": "9.16 e6/ml"}, {"measurement": "Day 4 Viability", "setting": "HiBit reporter cell line [4]; 5 nM simvastatin", "value": 92.7, "unit": "%"}, {"measurement": "Day 6 Viability", "setting": "HiBit reporter cell line [4]; 5 nM simvastatin", "value": 95.7, "unit": "%"}, {"measurement": "tolerability of producer cells", "setting": "HiBit reporter cell line [4]; 10 nM dose, batch refeed in shake flask, duration of the study", "value": "well tolerated"}, {"measurement": "D6 VCD", "setting": "HiBit reporter cell line [4]; 10 nM simvastatin", "value": "12.41 e6/ml"}, {"measurement": "Day 4 VCD", "setting": "HiBit reporter cell line [4]; 10 nM simvastatin", "value": "8.66 e6/ml"}, {"measurement": "Day 4 Viability", "setting": "HiBit reporter cell line [4]; 10 nM simvastatin", "value": 88.8, "unit": "%"}, {"measurement": "Day 6 Viability", "setting": "HiBit reporter cell line [4]; 10 nM simvastatin", "value": 93.6, "unit": "%"}, {"measurement": "viable cell density (VCD)", "setting": "HiBit reporter cell line [4]; simvastatin alone in HiBit cultures, Example 7", "value": "characteristic decrease"}, {"measurement": "Relationship to Control", "setting": "[5]; 5 nM simvastatin for 10 days", "value": 4, "unit": "x"}, {"measurement": "Total Particles", "setting": "[5]; 5 nM simvastatin for 10 days prior to EV purification", "value": "4.5E+11"}, {"measurement": "Relationship to Control", "setting": "[6]; exoIL-12, 5 nM simvastatin for 10 days", "value": 3.5, "unit": "x^"}, {"measurement": "Total Particles", "setting": "[6]; exoIL-12, 5 nM simvastatin for 10 days prior to EV purification", "value": "1.79E+11"}, {"measurement": "Relationship to Control", "setting": "[6]; exoIL-12, 10 nM simvastatin for 10 days", "value": 7, "unit": "x"}, {"measurement": "Total Particles", "setting": "[6]; exoIL-12, 10 nM simvastatin for 10 days prior to EV purification", "value": "3.50E+11"}]}, {"molecule": "CC(C)c1nc(N(C)S(C)(=O)=O)nc(-c2ccc(F)cc2)c1/C=C/[C@@H](O)C[C@@H](O)CC(=O)O", "note": "[rosuvastatin]", "values": [{"measurement": "EV expression (luminescence/cell)", "setting": "[3]; 10, 25, 50, 75, 100 nM, four days post induction", "value": "dose-dependent increase"}]}, {"molecule": "CC(C)CCC[C@@H](C)[C@H]1CC[C@H]2[C@@H]3CC=C4C[C@@H](O)CC[C@]4(C)[C@H]3CC[C@]12C", "note": "[synthetic cholesterol, cholesterol]", "values": [{"measurement": "impact on cell culture VCD", "setting": "HiBit reporter cell line [2]", "value": "no impact"}, {"measurement": "impact on exosome production", "setting": "[3]; elevated cholesterol alone", "value": "no impact"}, {"measurement": "simvastatin induction of EV production", "setting": "[3]; supplemental cholesterol together with simvastatin, still higher than control cultures lacking statin", "value": "largely attenuated"}]}]}
